Results from US20220144809A1, “COMPOUNDS AND METHODS FOR THE TARGETED DEGRADATION OF ANDROGEN RECEPTOR AND ASSOCIATED METHODS OF USE” (Arvinas Operations, Inc., priority 2020, published 2022).

Tested on: Androgen Receptor (AR)
Test: Androgen Receptor ELISA assay (AR degradation in LNCaP and/or VCaP cells)
Assay type: cell-based
Settings: degradation of AR, 5 hours incubation, R1881 in media
Method: Assay for Testing AR Degradation Driven by Compounds of the Present Disclosure.
Androgen Receptor ELISA Assay. Compounds were evaluated in the following assay in LNCaP and/or VCaP cells utilizing similar protocols. The protocols used with VCaP cells are described below. The androgen receptor ELISA assay was performed using PathScan AR Sandwich ELISA (Cell Signaling Catalog#12850) according to the following assay steps.
VCaP cells were seeded at 40,000 cells/well at a volume of 100 μL/well in VCaP assay medium [Phenol red free RPMI (Gibco Cat#11835-030); 5% Charcoal Stripped (Dextran treated) FBS (Omega Scientific, Cat#FB-04); 1% penstrep (Life Technologies, Gibco Cat#: 10378-016)] in Corning 3904 plates. The cells were grown for a minimum of 3 days.
First, cells were dosed with compounds diluted in […]—in a polypropylene plate avoiding the use of outer columns according to the following protocol: (1)(i) 1000× stock plate in DMSO was made; (ii) 20 mM stock diluted 1/6.7 with DMSO (5 μL+28.3 μL DMSO)=3 mM into row H; (iii) serial dilutions in ½ log doses (10 μL of bifunctional compound+20 μL DMSO) was performed from row H towards row B with row A being reserved for DMSO; (iv) 7 doses total (final concentration in this 1000× plate will be 3 mM, 1 mM, 333 μM, 111 μM, etc). (2)(i) A 10× stock plate in media was made; (ii) 2.5 μL of the 1000× stock was trasnferred to a new 10× stock plate (use 12 channel pipet, start at A (DMSO control) work thru H. When 247.5 μL of media was added to this plate, it served as a 10× stock; (iii) made media+1 nM R1881 for making 10× stock plate; (iv) added 247.5 μL of media with 1 nM R1881 to each well of the 10× stock plate, mix.
Then 22 μL of 10× stock was added to cells and incubated for 5 hours. 1× Cell Signaling Cell lysis buffer was made (Catalogue #9803; comes with the kit) to have […], and was kept on ice. Media was aspirated, and 100 μL 1× cell lysis buffer/well was added. The cells were placed on a shaker located in a cold room for 10 minutes and shaken at speed 7. The lysate mixture was mix and 20 μL transferred to 100 μl of Diluent in ELISA plate (0.15 μg/ml-0.075 μg/ml). The lysate-diluent mixture was store at 4° C. overnight on a shaker located in a cold room at speed 5 (gentle swirl).
The lysate-diluent mixture was shaken for 30 minutes at 37° C. The mouse AR antibody, anti-mouse antibody, TMB, and STOP solution were allowed to come to room temperature. The 1×ELISA buffer included in kit was made and loaded in reservoir. Media from the plate was discarded, the ELISA plate was tapped hard on paper towel, and washed 4×200 μl ELISA wash buffer using a plate washer for the first three washes and an eight channel aspirator for the fourth wash to more thoroughly aspirate the solution.
Next, 100 μL/well of mouse AR detection Ab was added; the plate was covered and shaken at 37° C. for 1 hour; media was discarded from the plates, the plates tapped on a paper towel and washed four times with 200 μL ELISA wash buffer with a plate washer for the first three washes and an eight channel aspirator for the fourth wash; 100 μL/well of anti-mouse—HRP conjugated Ab (comes with the kit) was added; the plates wascover and shaken at 37° C. for 30 minutes; the TMB reagent was allowed to come to room temperature; the media from the plate was discarded, the plates tapped on paper towel, and washed four times with 200 μL ELISA wash buffer with a plate washer for the first three washes and an eight channel aspirator for the fourth wash; plates were tapped on paper towl; 100 μL TMB was added to each well and the plate shaken for 2 minutes—while watching color. STOP solution (100 μL) was added when light blue color developed. The plates were shake and read at 450 nm.
Data was analyzed and plotted using GraphPad Prism software. Exemplary compounds of Table 1 were assayed and the data shown below in Table 2. […]

Row | SMILES | DC50 [nM] | Dmax Code
1 | COc1cc(N2C(=O)C3(CCC3)N(c3ccc(N4CCC(CN5CCN(c6ccc7c(c6)C(=O)N(C6CCC(=O)NC6=O)C7=O)CC5)CC4)cc3)C2=S)ccc1C#N (stereo not shown) [Compound 7, 4-(5-(4-(4-((4-(2-(2,6-dioxopiperidin-3-yl)-1,3-dioxoisoindolin-5-yl)piperazin-1-yl)methyl)piperidin-1-yl)phenyl)-8-oxo-6-thioxo-5,7-diazaspiro[3.4]octan-7-yl)-2-methoxybenzonitrile] | 1 to 10 | B (50≤B<70)
2 | CCN(CC1CCN(CCOc2ccc(CN3C(=S)N(c4ccc(C#N)c(C(F)(F)F)c4)C(=O)C3(C)C)cn2)CC1)[C@H]1C[C@H](Oc2ccc3c(c2)C(=O)N(C2CCC(=O)NC2=O)C3=O)C1 (stereo partly shown) [Compound 16, 4-(3-((6-(2-(4-((((1r,3r)-3-((2-(2,6-dioxopiperidin-3-yl)-1,3-dioxoisoindolin-5-yl)oxy)cyclobutyl)(ethyl)amino)methyl)piperidin-1-yl)ethoxy)pyridin-3-yl)methyl)-4,4-dimethyl-5-oxo-2-thioxoimidazolidin-1-yl)-2-(trifluoromethyl)benzonitrile] | 1 to 10 | C (C<50)
3 | Cc1c(C#N)c(-c2ccc(C#N)cc2)c(C)n1Cc1ccc(OCCOCCN2CCC(CN3CCN(c4ccc5c(c4)C(=O)N(C4CCC(=O)NC4=O)C5=O)CC3)CC2)cc1 (stereo not shown) [Compound 22, 4-(4-cyanophenyl)-1-(4-(2-(2-(4-((4-(2-(2,6-dioxopiperidin-3-yl)-1,3-dioxoisoindolin-5-yl)piperazin-1-yl)methyl)piperidin-1-yl)ethoxy)ethoxy)benzyl)-2,5-dimethyl-1H-pyrrole-3-carbonitrile] | ≥ 100 | C (C<50)
4 | CC(C)N(C[C@H]1C[C@H](Oc2ccc(N3C(=S)N(c4cnc(C#N)c(C(F)(F)F)c4)C(=O)C34CCC4)cn2)C1)[C@H]1C[C@H](Oc2ccc3c(c2)C(=O)N(C2CCC(=O)NC2=O)C3=O)C1 (stereo partly drawn) [Compound 8, 5-(5-(6-((1R,3r)-3-((((1r,3R)-3-((2-(2,6-dioxopiperidin-3-yl)-1,3-dioxoisoindolin-5-yl)oxy)cyclobutyl)(isopropyl)amino)methyl)cyclobutoxy)pyridin-3-yl)-8-oxo-6-thioxo-5,7-diazaspiro[3.4]octan-7-yl)-3-(trifluoromethyl)picolinonitrile] | 1 to 10 | C (C<50)
5 | N#Cc1ccc(N2C(=O)C3(CCC3)N(c3ccc(N4CCC(CN5CCN(c6ccc7c(c6)C(=O)N(C6CCC(=O)NC6=O)C7=O)CC5)CC4)cc3)C2=S)cc1Cl (stereo not shown) [Compound 9, 2-chloro-4-(5-(4-(4-((4-(2-(2,6-dioxopiperidin-3-yl)-1,3-dioxoisoindolin-5-yl)piperazin-1-yl)methyl)piperidin-1-yl)phenyl)-8-oxo-6-thioxo-5,7-diazaspiro[3.4]octan-7-yl)benzonitrile] | 1 to 10 | A (A≥70)
6 | N#Cc1ccc(N2C(=O)C3(CCC3)N(c3ccc(N4CCC(CN5CCN(c6ccc7c(c6)C(=O)N(C6CCC(=O)NC6=O)C7=O)CC5)CC4)c(F)c3)C2=S)cc1Cl (stereo not shown) [Compound 5, 2-chloro-4-(5-(4-(4-((4-(2-(2,6-dioxopiperidin-3-yl)-1,3-dioxoisoindolin-5-yl)piperazin-1-yl)methyl)piperidin-1-yl)-3-fluorophenyl)-8-oxo-6-thioxo-5,7-diazaspiro[3.4]octan-7-yl)benzonitrile] | < 1 | A (A≥70)
7 | CC(C)N(CC1CCN(c2ccc(N3C(=S)N(c4cnc(C#N)c(C(F)(F)F)c4)C(=O)C34CCC4)cn2)CC1)[C@H]1C[C@H](Oc2ccc3c(c2)C(=O)N(C2CCC(=O)NC2=O)C3=O)C1 (stereo partly shown) [Compound 13, 5-(5-(6-(4-((((1r,3r)-3-((2-(2,6-dioxopiperidin-3-yl)-1,3-dioxoisoindolin-5-yl)oxy)cyclobutyl)(isopropyl)amino)methyl)piperidin-1-yl)pyridin-3-yl)-8-oxo-6-thioxo-5,7-diazaspiro[3.4]octan-7-yl)-3-(trifluoromethyl)picolinonitrile] | 1 to 10 | C (C<50)

Further lines, with some results ahead:

Row | DC50 [nM] | SMILES | Dmax Code
8 | 10 to 100 | CC(C)N(CC1CCN(c2ccc(CCn3c(=O)n(-c4ccc(C#N)c(C(F)(F)F)c4)c4ccccc43)cc2)CC1)[C@H]1C[C@H](Oc2ccc3c(c2)C(=O)N(C2CCC(=O)NC2=O)C3=O)C1 (stereo partly shown) [Compound 17, 4-(3-(4-(4-((((1r,3r)-3-((2-(2,6-dioxopiperidin-3-yl)-1,3-dioxoisoindolin-5-yl)oxy)cyclobutyl)(isopropyl)amino)methyl)piperidin-1-yl)phenethyl)-2-oxo-2,3-dihydro-1H-benzo[d]imidazol-1-yl)-2-(trifluoromethyl)benzonitrile] | C (C<50)
9 | ≥ 100 | Cc1c(C#N)c(-c2ccc(C#N)cc2)c(C)n1Cc1ccc(N2CCC(CN3CCN(c4ccc5c(c4)C(=O)N(C4CCC(=O)NC4=O)C5=O)CC3)CC2)cc1 (stereo not shown) [Compound 18, 4-(4-cyanophenyl)-1-(4-(4-((4-(2-(2,6-dioxopiperidin-3-yl)-1,3-dioxoisoindolin-5-yl)piperazin-1-yl)methyl)piperidin-1-yl)benzyl)-2,5-dimethyl-1H-pyrrole-3-carbonitrile] | C (C<50)
10 | ≥ 100 | Cc1c(C#N)c(-c2ccc(C#N)cc2)c(C)n1Cc1ccc(OCCOCCOCCN2CCC(CN3CCN(c4ccc5c(c4)C(=O)N(C4CCC(=O)NC4=O)C5=O)CC3)CC2)cc1 (stereo not shown) [Compound 21, 4-(4-cyanophenyl)-1-(4-(2-(2-(2-(4-((4-(2-(2,6-dioxopiperidin-3-yl)-1,3-dioxoisoindolin-5-yl)piperazin-1-yl)methyl)piperidin-1-yl)ethoxy)ethoxy)ethoxy)benzyl)-2,5-dimethyl-1H-pyrrole-3-carbonitrile] | C (C<50)
11 | 1 to 10 | N#Cc1ncc(N2C(=O)C3(CCC3)N(c3ccc(OC4CCN(CC5CCN(c6ccc7c(c6)C(=O)N(C6CCC(=O)NC6=O)C7=O)CC5)CC4)c(F)c3)C2=S)cc1Cl (stereo not shown) [Compound 10, 3-chloro-5-(5-(4-((1-((1-(2-(2,6-dioxopiperidin-3-yl)-1,3-dioxoisoindolin-5-yl)piperidin-4-yl)methyl)piperidin-4-yl)oxy)-3-fluorophenyl)-8-oxo-6-thioxo-5,7-diazaspiro[3.4]octan-7-yl)picolinonitrile] | A (A≥70)
